SMILES strings stand for the structures.

Holding throughout (format): functional, cell-based
One test concerns MCF7. In words: Cytotoxicity against human MCF7 cells assessed as reduction in cell viability by CCK-8 assay. In general terms: Formazan colour is commonly taken as a measure of viable cells.
A further test relates to A549. In words: Cytotoxicity against human A549 cells assessed as reduction in cell viability by CCK-8 assay.
A further test has as its system HepG2. In words: Cytotoxicity against human HepG2 cells assessed as reduction in cell viability by CCK-8 assay.
In a further test the test system is PC-3M. In words: Cytotoxicity against human PC-3M cells assessed as reduction in cell viability by CCK-8 assay.
For a further test, the system named is PANC-1. In words: Cytotoxicity against human PANC-1 cells assessed as reduction in cell viability by CCK-8 assay.

`C=C(C)[C@@H]1CC[C@]2(C(=O)OCCCCn3cncn3)CC[C@]3(C)[C@H](C[C@@H](O)[C@@H]4[C@@]5(C)C(CC(=O)OC)OC(C)(C)C5CC[C@]43C)[C@@H]12` (stereo not given in full): the 50% inhibitory concentration (IC50) with MCF7 was 75.2 µM; in the test on A549 it was 42.4 µM; with HepG2 it was 26.1 µM; in the test with PC-3M, 45.3 µM; with PANC-1, 58.6 µM.

`C=C(C)[C@@H]1CC[C@]2(C(=O)OCCCCn3ccnc3C)CC[C@]3(C)[C@H](C[C@H]4OC(=O)C[C@@H](O)[C@]5(C)[C@@H]4[C@@]3(C)CC[C@H]5C(=C)C)[C@@H]12`: the 50% inhibitory concentration (IC50) in the test on MCF7 is 77.6 µM; in the test with A549 it was 48.4 µM; in the test on HepG2, 27.8 µM; in the test with PC-3M it was 30 µM; in the test with PANC-1 it was 56.5 µM.

As for `C=C(C)[C@@H]1CC[C@]2(C(=O)OCCCCCCn3cc(CCN)c4ccccc43)CC[C@]3(C)[C@H](C[C@H]4OC(=O)C[C@@H](O)[C@]5(C)[C@@H]4[C@@]3(C)CC[C@H]5C(=C)C)[C@@H]12`, the IC50 turned out to be 5.87 µM with MCF7; 6.5 µM with A549; 1.03 µM in the test on HepG2; 6 µM with PC-3M; 7.02 µM in the test on PANC-1.

Regarding `C=C(C)[C@@H]1CC[C@]2(C(=O)OCCCCCCn3cc(CCN)c4ccccc43)CC[C@]3(C)[C@H](C[C@@H](O)[C@@H]4[C@@]5(C)C(CC(=O)OC)OC(C)(C)C5CC[C@]43C)[C@@H]12` (stereo not given in full), the IC50 in the test on MCF7 is 24.5 µM; with A549 it was 5.97 µM; in the test with HepG2, 1.91 µM; in the test on PC-3M it was 3.99 µM; with PANC-1, 7.06 µM.

For the compound `C=C(C)[C@@H]1CC[C@]2(C(=O)OCCCCCBr)CC[C@]3(C)[C@H](C[C@H]4OC(=O)C[C@@H](O)[C@]5(C)[C@@H]4[C@@]3(C)CC[C@H]5C(=C)C)[C@@H]12`, the IC50 is 56.1 µM in the test on MCF7; 19.8 µM in the test with A549; 14.3 µM with HepG2; 14.5 µM in the test with PC-3M; 43.1 µM in the test with PANC-1.

Consider `C=C(C)[C@@H]1CC[C@]2(C(=O)OCCCCCn3ccnc3CC)CC[C@]3(C)[C@H](C[C@H]4OC(=O)C[C@@H](O)[C@]5(C)[C@@H]4[C@@]3(C)CC[C@H]5C(=C)C)[C@@H]12`, for which the IC50 in the test on MCF7 stood at 50.2 µM; in the test on A549, 14.3 µM; in the test with HepG2, 6.1 µM; with PC-3M, 12.5 µM; in the test on PANC-1 it was 12.8 µM.

`C=C(C)[C@@H]1CC[C@]2(C(=O)OCCCCCCn3cncn3)CC[C@]3(C)[C@H](C[C@H]4OC(=O)C[C@@H](O)[C@]5(C)[C@@H]4[C@@]3(C)CC[C@H]5C(=C)C)[C@@H]12`: the 50% inhibitory concentration (IC50) in the test on MCF7 is 103 µM; in the test on A549, 24.6 µM; with HepG2 it was 23.8 µM; with PC-3M, 56 µM; in the test with PANC-1, 19.5 µM.

Regarding `C=C(C)[C@@H]1CC[C@]2(C(=O)OCCCn3cncn3)CC[C@]3(C)[C@H](C[C@@H](O)[C@@H]4[C@@]5(C)C(CC(=O)OC)OC(C)(C)C5CC[C@]43C)[C@@H]12` (stereo not given in full), the IC50 with MCF7 stood at 81.6 µM; in the test with A549 it was 31.3 µM; in the test with HepG2, 29.2 µM; in the test with PC-3M, 43.2 µM; with PANC-1 it was 57 µM.

Turning to `C=C(C)[C@@H]1CC[C@]2(C(=O)OCCCCCCCCCCn3cncn3)CC[C@]3(C)[C@H](C[C@H]4OC(=O)C[C@@H](O)[C@]5(C)[C@@H]4[C@@]3(C)CC[C@H]5C(=C)C)[C@@H]12`, the IC50 with MCF7 stood at 46.2 µM; in the test with A549, 29.4 µM; in the test with HepG2 it was 14.6 µM; in the test with PC-3M, 19.9 µM; in the test with PANC-1, 36.4 µM.

Turning to `C=C(C)[C@@H]1CC[C@]2(C(=O)OCCCn3cnc(C)c3)CC[C@]3(C)[C@H](C[C@H]4OC(=O)C[C@@H](O)[C@]5(C)[C@@H]4[C@@]3(C)CC[C@H]5C(=C)C)[C@@H]12`, the 50% inhibitory concentration (IC50) turned out to be 48.6 µM in the test on MCF7; 39.5 µM with A549; 35.3 µM in the test on HepG2; 18.5 µM in the test on PC-3M; 83.8 µM in the test on PANC-1.

What is called IC50 is the concentration that inhibits the measured activity by half.

These data come from ChEMBL document CHEMBL5143734, “Seco-Lupane Triterpene Derivatives Induce Ferroptosis through GPX4/ACSL4 Axis and Target Cyclin D1 to Block the Cell Cycle” (J Med Chem, 2022).
